In one assay the test system is AMPA-R. As to the kind of experiment: Ca2+ influx assay using rat primary hippocampal neurons. The assay is classed as cell-based. Details: key to Single effect on Ca2+ level: -: No effect or slight effect; +: Potent; ++: Very potent. The settings on record: for Single effect on Ca2+ level: summary grade. How it is done: Ca^2+ influx assay using primary neurons was performed as previously described. After 5 days of culture, the cells plated on poly-D-lysine coated 96-well plates (Corning Incorporated) at 2 × 10^4 or 5 × 10^4 cells/well were used for experiments with PF-04958242 or TAK-653, respectively. Fluorescent calcium indicator dye solution (Calcium4 assay Kit, Dojindo, Kumamoto, Japan) in Ca^2+ reaction buffer (DMEM, HEPES and BSA) containing Probenecid (Dojindo) was added and incubated for 60 min in 5% CO2 at 37 °C. After washing once, the relative increases in intracellular Ca^2+ levels stimulated by compounds in the presence and absence of AMPA were monitored. Details are described in the Supplementary Information.
Primary cultures of hippocampal neuronal cells were prepared from fetal Sprague-Dawley rats at 19 days of gestation. Rat embryos were decapitated and their whole brains were isolated. Hippocampi were dissected in ice-cold Hanks' Balanced Salt Solutions (HBSS) under a microscope and then dispersed into cells using a neural cell dispersion kit (Sumitomo Bakelite Co., Ltd., Tokyo, Japan). The dissociated cells were suspended in Neurobasal medium containing B27 supplement (Thermo Fisher Scientific Inc.), 2 mM L-glutamine (Lonza, Basel, Switzerland), 100 U/mL penicillin (Lonza), 100 μg/mL streptomycin (Lonza) and 20 μg/mL gentamicin sulfate (Lonza). The cells were plated on poly-D-lysine coated 96-well plates (Corning Incorporated) for Ca^2+ influx assay or on poly-L-lysine coated 96-well plates (Sumitomo Bakelite) for measurement of BDNF protein levels and cultured in a humidified CO2 incubator with 5% CO2 at 37°C.
After 5 days of culture, the cells at 2×10^4 or 5×10^4 cells/well were used for experiments with PF-04958242 or TAK-653, respectively. For TAK-653, after removal of culture medium, 75 µL of fluorescent calcium indicator dye solution (Calcium4 assay Kit, Dojindo, Kumamoto, Japan) in Ca^2+ reaction buffer (DMEM, 10 mM HEPES and 0.1% BSA) containing 1.25 mM Probenecid (Dojindo) was added and incubated for 60 min in 5% CO2 at 37°C and washed once using 75 µL of fluorescent calcium indicator dye solution. After addition of 75 µL of fluorescent calcium indicator dye solution to each well again, the relative increases in intracellular Ca^2+ levels by compounds in the presence and absence of 5 μM AMPA were monitored for 8.5 min by fluorometric imaging plate reader. Activity of the compound was defined as fluorescence intensity integrated over the entire period of measurement. Intensity of 0% was defined as activity in the presence of only DMSO, while 100% was defined as activity in the presence of 5 μM AMPA and 10 μM HBT1. For PF-04958242, after removal of culture medium, 90 µL of fluorescent calcium indicator dye solution (Calcium4 assay Kit, Dojindo) in Ca^2+ reaction buffer (DMEM, 20 mM HEPES and 0.1% BSA) containing 2.5 mM Probenecid (Dojindo) was added and incubated for 60 min in 5% CO2 at 37°C. After addition of 90 µL of fluorescent calcium indicator dye solution to each well again, the relative increases in intracellular Ca^2+ levels by compounds in the presence and absence of 1 μM AMPA were monitored for 2 min in a microplate reader (CellLux, PerkinElmer, Waltham, MA, USA). Activity of the compound was defined as fluorescence intensity integrated over the entire period of measurement. 100% was defined as activity in the presence of 1 μM AMPA and 10 μM HBT1, while intensity of 0% was defined as activity in the presence of 1 μM AMPA or only DMSO for potentiator effect or agonistic effect, respectively. EC50 values were calculated by logistic regression analysis.

Another assay relates to naïve rats. As to the kind of experiment: Novel object recognition (NOR) test. Type of assay: in vivo, rat. Conditions: for NORT (effective doses): summary. How it is done:
NOR tests were performed using male Long-Evans rats at 6 weeks old as previously described, with some modifications. On day 1, rats were allowed to habituate to the empty test box (a gray-colored polyvinyl chloride box (40 × 40 × 50 cm)) for 10 min individually. Testing comprised two 3-min trials called the acquisition trial and the retention trial that were separated by 48 h inter-trial intervals (ITIs). On day 2, in the acquisition trial, rats were allowed to explore two identical objects (A1 and A2) for 3 min. On day 4, in the retention trial, rats were again allowed to explore a familiar object (A3) and a novel object (B) for 3 min. The object exploration was defined as rats' licking, sniffing or touching the object with forelimbs while sniffing. TAK-653 or AMPA was orally or intraperitoneally, respectively, 2 h or 0.5 h prior to the acquisition and the retention trials. The NDI was calculated using the following equation: novel object interaction/total interaction × 100 (%).

Data on two molecules can be found in article PMC8282797, “Strictly regulated agonist-dependent activation of AMPA-R is the key characteristic of TAK-653 for robust synaptic responses and cognitive improvement” (Scientific Reports, 2021).

Where only a bound is given, the exact number is not on record here.

Broadly, the EC50 is the concentration that produces a half-maximal response. Consider `CC1=CN2CCS(=O)(=O)N=C2C(c2ccc(OC3CCCCC3)cc2)=N1` [TAK-653, 9-[4-(Cyclohexyloxy)phenyl]-7-methyl-3,4-dihydropyrazino[2,1-c][1,2,4]thiadiazine 2,2-dioxide], for which the “Intracellular Ca2+ level, Agonistic effect @30 μM” value in the assay on AMPA-R (absence of AMPA, % of 5 μM AMPA + 10 μM HBT1 response) came to 4.8%. For the same molecule, the EC50 with AMPA-R (in the presence of 5 μM AMPA, read-out: Intracellular Ca2+ level, Potentiation EC50) came out at 930 nM. In addition, in the assay with AMPA-R, the “Single effect on Ca2+ level” value is on record as “─”. For the same molecule, the “Novelty discrimination index (NDI)” value with naïve rats (0.03, 0.1 and 0.3 mg/kg, p.o., 2 h prior to trials) is given as “significantly improved”. The “Dose improving visual learning and memory in NOR test” value in the assay with naïve rats (p.o., rats) is recorded as no less than 0.03 mg/kg. Besides, the “NORT (effective doses)” value with naïve rats is given as “Effective (0.03, 0.1, 0.3)”.

As to `Cc1onc(O)c1CC(N)C(=O)O` (stereo not drawn) [AMPA, alpha-amino-3-hydroxy-5-methyl-4-isoxazole-propionic acid], the “Intracellular Ca2+ levels” value in the assay with AMPA-R (single application) is “dose-dependently increased”. Moreover, in the assay with AMPA-R, the “Single effect on Ca2+ level” value is “+”. For the same molecule, in the assay on naïve rats (0.3 to 3 mg/kg, i.p.), the “Cognitive performance in the NOR test” value is given as “did not improve”. The “NORT (effective doses)” value in the assay with naïve rats is listed as “No effect”.
